From US4226610A, “Herbicidal compounds, preparation thereof and herbicides containing the same” (Meiji Selka Kaisha, Ltd., priority 1978, dated 1980)
Entries after “also recorded” stand apart in the source; their conditions may differ. Structures can show the parent of a compound that is named as a salt.

Tests used:
[1] = test system: manna grass; experiment: Experiment 1 foliar application to naturally growing weeds; format: in vivo, Digitaria adsceudes Henr.; conditions: for Reproduction-inhibiting effect: 2 months
Description: (§1) The detail of the assessment made in the following Experiments of the invention was as follows:
(§2) Four months after treatment, evaluation was made for inhibition of reproduction expressed in terms of symbols ranging from (-) to (+++) where (-) means no reproduction, namely complete suppression of reproduction, (±) remarkable suppression of reproduction; (+) considerable suppression of reproduction; (++) medium supprestion of reproduction; and (+++) no suppression of reproduction.
(§3) The compounds of the invention and other compounds for comparison listed in Table 3 were diluted to prescribed concentrations and sprayed to naturally growing weeds by foliar application in an amount of 150 liter per 10 are.
(§4) 0.1% of octylphenyl polyoxyethanol was added as a surfactant.
(§5) The killing index (0, no effect, 5, death) after 21 days, and the reproduction-inhibiting effect (-, no reproduction; +++, maximum reproduction) after 2 months (manna grass and cockspar grass) and 4 months (other weeds) were determined.

[2] = test system: azumanezasa; experiment: as above; format: in vivo, Pleioblastus Chino Makino; conditions: 4 months
Description: as §1, §2, §3, §4, §5

[3] = test system: water hyacinth; experiment: Experiment 5 foliar application to water hyacinths; format: in vivo, Eichhornia crassipes Solms; conditions: 3 months, listed as DL-AMPB monosodium salt, monosodium salt
Procedure, shortened: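 Two plants floated in fertilized water per vessel, sprayed foliarly with 0.1 or 0.2% aqueous compound solutions at 100 liter per 10 are plus 0.1% octylphenyl polyoxyethanol. Killing index (0 no effect to 5 death) scored at 21 days and 3 months; reproduction inhibition scored (-) to (+++) at 3 months.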

[4] = test system: lace shrub; experiment: Experiment 3 foliar application to naturally growing shrubs; format: in vivo, Stephanandra incisa Zabel; conditions: after 3 months
Description: as §1, §2
(§6) The compounds of the invention and other compounds listed in Table 5. were diluted to prescribed concentrations and sprayed onto naturally growing shrubs by foliar application in an amount of 150 liter per 10 are.
(§7) 0.1% of octylphenyl polyoxyethanol was added as the surfactant. The killing index (0, no effect; 5, death) after 1 month and 3 months, and the reproduction-inhibiting effect (-, no reproduction; +++, maximum reproduction) after 3 months were determined.

[5] = test system: eulalia; experiment: Experiment 2 foliar application in Japanese cypress afforested land; format: in vivo, Miscanthus sinensis Andress.; design: key: 0 = no effect, 5 = death; conditions: 0.125%; after 30 days; monosodium salt
Experimental: as §1
(§8) The compounds of the invention and other compounds listed in Table 4. were diluted to prescribed concentrations and sprayed to shrubs by foliar application in a Japanese cypress afforested land in an amount of 150 liter per 10 are.
(§9) After 30 days and 3 months, the killing index (0, no effect; 5, death) was determined.
(§10) The heights of plants were 50-70 cm. for Japanese cypress, about 50 cm. for chestnut, 50-90 cm. for miyakozasa, about 100 cm. for eulalia and 70-100 cm. for kumaichigo, respectively.

[6] = test system: cockspar grass; experiment: Experiment 1 foliar application to naturally growing weeds; format: in vivo, Echinochloa Crusgalli P. Beauv.; conditions: for Reproduction-inhibiting effect: 2 months
Description: as §1, §2, §3, §4, §5

[7] = test system: hedge bindweed; experiment: as above; format: in vivo, Calystegis hederacea Wall.; conditions: 4 months
Description: as §1, §2, §3, §4, §5

[8] = test system: Japanese prickly ash; experiment: Experiment 3 foliar application to naturally growing shrubs; format: in vivo, Xanthoxylum piperitum DC.; conditions: after 3 months
Description: as §1, §2, §6, §7

[9] = test system: kumaichigo; experiment: Experiment 2 foliar application in Japanese cypress afforested land; format: in vivo, Rubus crataegifolius Bunge
Experimental: as §1, §8, §9, §10

[10] = test system: oak; experiment: Experiment 3 foliar application to naturally growing shrubs; format: in vivo, Quercus serrata Thunb; conditions: after 3 months
Description: as §1, §2, §6, §7

[11] = test system: kiichigo; experiment: as above; format: in vivo, Rubus palmatsu Thunb. forma coptophyllus Makino; conditions: after 3 months
Description: as §1, §2, §6, §7

[12] = test system: yabugarashi; experiment: Experiment 1 foliar application to naturally growing weeds; format: in vivo, Cayratia japonica Houtt.; conditions: 4 months
Description: as §1, §2, §3, §4, §5

[13] = test system: chestnut; experiment: Experiment 2 foliar application in Japanese cypress afforested land; format: in vivo, Castanea crenata Sieb et Zucc.; conditions: 0.063%; after 30 days; monosodium salt
Experimental: as §1, §8, §9, §10

[14] = test system: warunasubi; experiment: Experiment 1 foliar application to naturally growing weeds; format: in vivo, Solanum carolinensis L.; conditions: 4 months
Description: as §1, §2, §3, §4, §5

[15] = test system: Japanese bush cranberry; experiment: Experiment 3 foliar application to naturally growing shrubs; format: in vivo, Viburnum dilatatum Thunb.; conditions: for Reproduction-inhibiting: after 3 months
Description: as §1, §2, §6, §7

[16] = test system: torch azalea; experiment: as above; format: in vivo, Rhododendoron Kaempferi Planch.; conditions: after 3 months
Description: as §1, §2, §6, §7

[17] = test system: yamazakura; experiment: as above; format: in vivo, Prunus donarium Sieb. var. spontanae Makino; conditions: after 3 months
Description: as §1, §2, §6, §7

[18] = test system: chigaya; experiment: Experiment 1 foliar application to naturally growing weeds; format: in vivo, Imperata cylindrica Beauv.; conditions: 4 months
Description: as §1, §2, §3, §4, §5

[19] = test system: purple nutsedge; experiment: as above; format: in vivo, Cyperus rotundus L.; conditions: 4 months
Description: as §1, §2, §3, §4, §5

[20] = test system: white clover; experiment: as above; format: in vivo, Trifolium repens L.; conditions: for Reproduction-inhibiting effect: 4 months
Description: as §1, §2, §3, §4, §5

[21] = test system: weeds and shrubs; conditions: background statement; cited from earlier work

CP(=O)(O)CCC(N)C(=O)O (racemic) [DL-2-Amino-4-methylphosphinobutanoic acid monosodium salt]
Reproduction-inhibiting effect ([1]; 0.05%, monosodium salt): +++ | Reproduction-inhibiting effect ([1]; 0.1%, monosodium salt): ++ | Reproduction-inhibiting effect ([1]; 0.2%, monosodium salt): ± | Killing index of Upperground parts ([1]; 0.2%, 21 days, monosodium salt): 4.5 | Reproduction-inhibiting effect ([2]; 0.05%, monosodium salt): +++ | Reproduction-inhibiting effect ([2]; 0.1%, monosodium salt): + | Reproduction-inhibiting effect ([2]; 0.2%): - | Reproduction-inhibiting effect ([3]; 0.1%): ++ | Reproduction-inhibiting effect ([3]; 0.2%): ± | Reproduction-inhibiting ([4]; 0.05%, monosodium salt): +++ | Reproduction-inhibiting ([4]; 0.1%, monosodium salt): ++ | Reproduction-inhibiting ([4]; 0.2%): - | Killing index [5]: 2.5 | Reproduction-inhibiting effect ([6]; 0.05%, monosodium salt): + ++ | Reproduction-inhibiting effect ([6]; 0.1%, monosodium salt): ++ | Reproduction-inhibiting effect ([6]; 0.2%, monosodium salt): ± | Killing index of Upperground parts ([6]; 0.2%, 21 days, monosodium salt): 4.5 | Reproduction-inhibiting effect ([7]; 0.05%, monosodium salt): +++ | Reproduction-inhibiting effect ([7]; 0.1%, monosodium salt): +++ | Reproduction-inhibiting effect ([7]; 0.2%, monosodium salt): +++ | Reproduction-inhibiting ([8]; 0.05%, monosodium salt): +++ | Reproduction-inhibiting ([8]; 0.1%, monosodium salt): ++ | Reproduction-inhibiting ([8]; 0.2%): - | Killing index ([9]; 0.063%, after 30 days, monosodium salt): 1.5 | Reproduction-inhibiting ([10]; 0.05%, monosodium salt): +++ | Reproduction-inhibiting ([10]; 0.1%, monosodium salt): ++ | Reproduction-inhibiting ([10]; 0.2%): - | Reproduction-inhibiting ([11]; 0.05%, monosodium salt): +++ | Reproduction-inhibiting ([11]; 0.1%, monosodium salt): ++ | Reproduction-inhibiting ([11]; 0.2%): - | Reproduction-inhibiting effect ([12]; 0.05%, monosodium salt): +++ | Reproduction-inhibiting effect ([12]; 0.1%, monosodium salt): +++ | Reproduction-inhibiting effect ([12]; 0.2%, monosodium salt): ++ | Killing index [13]: 0.5 | Reproduction-inhibiting effect ([14]; 0.05%, monosodium salt): +++ | Reproduction-inhibiting effect ([14]; 0.1%, monosodium salt): +++ | Reproduction-inhibiting effect ([14]; 0.2%, monosodium salt): + | Reproduction-inhibiting ([15]; 0.05%): +++ | Reproduction-inhibiting ([15]; 0.1%): ++ | Reproduction-inhibiting ([15]; 0.2%, monosodium salt): + + | Reproduction-inhibiting ([16]; 0.05%, monosodium salt): +++ | Reproduction-inhibiting ([16]; 0.1%, monosodium salt): ++ | Reproduction-inhibiting ([16]; 0.2%): - | Reproduction-inhibiting ([17]; 0.05%, monosodium salt): +++ | Reproduction-inhibiting ([17]; 0.1%, monosodium salt): ++ | Reproduction-inhibiting ([17]; 0.2%): - | Reproduction-inhibiting effect ([18]; 0.05%, monosodium salt): ++ | Reproduction-inhibiting effect ([18]; 0.1%, monosodium salt): ++ | Reproduction-inhibiting effect ([18]; 0.2%): - | Reproduction-inhibiting effect ([19]; 0.05%, monosodium salt): +++ | Reproduction-inhibiting effect ([19]; 0.1%, monosodium salt): +++ | Reproduction-inhibiting effect ([19]; 0.2%, monosodium salt): + | Reproduction-inhibiting effect ([20]; 0.05%, monosodium salt): +++ | Reproduction-inhibiting effect ([20]; 0.1%, monosodium salt): +++ | Reproduction-inhibiting effect ([20]; 0.2%, monosodium salt): + | Killing index of Upperground parts ([20]; 0.2%, 21 days, monosodium salt): 4.5

O=C(O)CNCP(=O)(O)O [Glyphosate, N-phosphonomethylglycine]
Reproduction-inhibiting effect ([1]; 0.05%): +++ | Reproduction-inhibiting effect ([1]; 0.1%): ++ | Reproduction-inhibiting effect ([1]; 0.2%): + | Reproduction-inhibiting effect ([2]; 0.05%): +++ | Reproduction-inhibiting effect ([2]; 0.1%): ++ | Reproduction-inhibiting effect ([2]; 0.2%): + | Reproduction-inhibiting ([4]; 0.05%): +++ | Reproduction-inhibiting ([4]; 0.1%): +++ | Reproduction-inhibiting ([4]; 0.2%): +++ | weeding effects of known herbicides in words [21]: not so effective for broad-leaved weeds; also recorded: poor weeding effects for broadleaved weeds and shrubs | Reproduction-inhibiting effect ([6]; 0.05%): +++ | Reproduction-inhibiting effect ([6]; 0.1%): ++ | Reproduction-inhibiting effect ([6]; 0.2%): + | Reproduction-inhibiting effect ([7]; 0.05%): +++ | Reproduction-inhibiting effect ([7]; 0.1%): +++ | Reproduction-inhibiting effect ([7]; 0.2%): +++ | Reproduction-inhibiting ([8]; 0.05%): +++ | Reproduction-inhibiting ([8]; 0.1%): +++ | Reproduction-inhibiting ([8]; 0.2%): +++ | Killing index ([9]; 0.125%, after 3 months): 0.5 | Reproduction-inhibiting ([10]; 0.05%): +++ | Reproduction-inhibiting ([10]; 0.1%): +++ | Reproduction-inhibiting ([10]; 0.2%): +++ | Reproduction-inhibiting ([11]; 0.05%): +++ | Reproduction-inhibiting ([11]; 0.1%): +++ | Reproduction-inhibiting ([11]; 0.2%): ++ | Reproduction-inhibiting effect ([12]; 0.05%): +++ | Reproduction-inhibiting effect ([12]; 0.1%): +++ | Reproduction-inhibiting effect ([12]; 0.2%): ++ | Reproduction-inhibiting effect ([14]; 0.05%): +++ | Reproduction-inhibiting effect ([14]; 0.1%): +++ | Reproduction-inhibiting effect ([14]; 0.2%): + | Reproduction-inhibiting ([15]; 0.05%): +++ | Reproduction-inhibiting ([15]; 0.1%): +++ | Reproduction-inhibiting ([15]; 0.2%): ++ | Killing index ([15]; 0.2%, after 30 days): 1.5 | Reproduction-inhibiting ([16]; 0.05%): +++ | Reproduction-inhibiting ([16]; 0.1%): +++ | Reproduction-inhibiting ([16]; 0.2%): +++ | Reproduction-inhibiting ([17]; 0.05%): +++ | Reproduction-inhibiting ([17]; 0.1%): +++ | Reproduction-inhibiting ([17]; 0.2%): ++ | Reproduction-inhibiting effect ([18]; 0.05%): +++ | Reproduction-inhibiting effect ([18]; 0.1%): ++ | Reproduction-inhibiting effect ([18]; 0.2%): ± | Reproduction-inhibiting effect ([19]; 0.05%): +++ | Reproduction-inhibiting effect ([19]; 0.1%): +++ | Reproduction-inhibiting effect ([19]; 0.2%): + | Reproduction-inhibiting effect ([20]; 0.05%): +++ | Reproduction-inhibiting effect ([20]; 0.1%): ++ | Reproduction-inhibiting effect ([20]; 0.2%): +
